The values below come from patent US6916432B2, “Hair bleach composition and hair dye composition” (Kao Corporation, priority 2000, dated 2005).

The first data set is described as follows: physchem.
Settings: not given
In turn, `CC(O)CCO` (centres unmarked) [1,3-butanediol] yielded a lipophilicity (logP) of -1.4. Same read-out and setting: then `OCCOc1ccccc1` [2-phenoxyethanol], with 1.2; and `OC1CCCCC1` [cyclohexanol], with 1.2. On to `OCCOCCO` [diethylene glycol], for which the logP is -1.3.

For `CCCCOCCO` [ethylene glycol mono-n-butyl ether], the logP amounted to 0.8.

Another data set is described as follows: partition coefficient (octanol-water) (log P) at 25° C. The note with it: octanol-water, 25° C.
In the case of `COCCOCCO` [methoxydiglycol], the “log P (at 25° C.)” value is reported as −0.7.

The same data set, now with this note: octanol/water.
`CC(O)COc1ccccc1` (centres unmarked) [1-phenoxy-2-propanol] registered a logP of 1.1.

`OCCOCc1ccccc1` [2-benzyloxyethanol] displayed a logP of 1.2. This logP and that of the compound before are within 0.2 log units of each other. On the same count and under the same terms, in the case of `CCOCCO` [2-ethoxyethanol] it was -0.2; in that of `CCN1CCCC1=O` [N-ethylpyrrolidone], -0.2. The same measure, in the same setting: then `CN1CCCC1=O` [N-methylpyrrolidone], with -0.5.

`CCCCOCCOCCO` [diethylene glycol mono-n-butyl ether] yielded a logP of 0.9. The same measure, in the same setting: in the case of `OCC(O)CO` [glycerin] it was -2.2.

`CC(O)CO` (centres unmarked) [propylene glycol]: the logP was -1.1.
